Test [1] concerns CD69 expression on CD19+ B cells in human whole blood stimulated with anti-human IgD. Put plainly: In Vitro whole blood CD69 Assay. As to conditions: human heparinized whole blood, anti-human IgD stimulation overnight, percentage of CD19+ B cells expressing CD69, flow cytometry, read-out: IC50. It counts as cell-based. A general note: Flow cytometry measures light scatter and fluorescence of single cells or particles in a stream.

A further test has as its target BTK (Homo sapiens (Human), UniProt Q06187). The experiment in a line: In Vitro BTK Kinase Assay: Btk-PolyGAT-LS Assay. The class given is biochemical. Particulars: BTK enzyme 0.25 nM, ATP 10 μM, polyGAT 100 nM, 30 minutes incubation, TRF readout; read-out: IC50. As to the method: The purpose of the BTK in vitro assay is to determine compound potency against BTK through the measurement of IC50. […] For a typical assay, a 24 μL aliquot of a ATP/peptide master mix (final concentration; ATP 10 μM, polyGAT 100 nM) in kinase buffer (10 mM Tris-HCl pH 7.5, 10 mM MgCl2, 200 μM Na3PO4, 5 mM DTT, 0.01% Triton X-100, and 0.2 mg/ml casein) is added to each well. […] The assay is incubated for 30 minutes before being stopped with 28 μL of a 50 mM EDTA solution. […] The plate is covered and incubated for 45 minutes at room temperature.

The record followed here is patent US20240083900A1, “PYRAZOLO[1,5-A]PYRAZINE DERIVATIVES AS BTK INHIBITORS” (BIOGEN MA INC., priority 2020, published 2024).

One may read the IC50 as the concentration at which inhibition is half-maximal.

Where two headings read alike, the source gives them in different places.

Chain of BTK (Q06187 whole entry): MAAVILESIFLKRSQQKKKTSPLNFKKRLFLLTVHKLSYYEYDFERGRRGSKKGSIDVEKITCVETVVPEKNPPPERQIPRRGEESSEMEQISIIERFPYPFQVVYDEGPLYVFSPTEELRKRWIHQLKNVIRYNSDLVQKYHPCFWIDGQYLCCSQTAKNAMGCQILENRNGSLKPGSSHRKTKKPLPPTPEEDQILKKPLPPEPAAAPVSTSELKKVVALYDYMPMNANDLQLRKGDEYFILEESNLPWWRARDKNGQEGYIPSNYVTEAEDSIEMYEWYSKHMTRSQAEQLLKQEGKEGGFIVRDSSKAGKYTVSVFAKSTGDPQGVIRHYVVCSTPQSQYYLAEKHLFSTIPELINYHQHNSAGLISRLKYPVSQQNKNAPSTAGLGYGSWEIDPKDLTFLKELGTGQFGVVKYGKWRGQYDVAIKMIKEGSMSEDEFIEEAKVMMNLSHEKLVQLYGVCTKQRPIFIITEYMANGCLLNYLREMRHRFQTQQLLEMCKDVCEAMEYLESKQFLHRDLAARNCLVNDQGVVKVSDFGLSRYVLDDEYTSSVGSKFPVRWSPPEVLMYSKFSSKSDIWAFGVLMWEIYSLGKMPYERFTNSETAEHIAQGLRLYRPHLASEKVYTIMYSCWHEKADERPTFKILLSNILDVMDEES

For `C=CC(=O)N(C)[C@H]1C[C@H](Oc2nc(-c3cnn(C)c3)cn3nccc23)C1` [Example 185, N-methyl-N-((trans)-3-((6-(1-methyl-1H-pyrazol-4-yl)pyrazolo[1,5-a]pyrazin-4-yl)oxy)cyclobutyl)acrylamide], the IC50 in test [1] (Homo sapiens, B-cell) lay within 1000 to 10000 nM.

In the case of `C=CC(=O)N(C)C12CCC(Oc3nc(-c4cnn(C)c4)cn4nccc34)(C1)C2` [Example 99, N-methyl-N-(4-((6-(1-methyl-1H-pyrazol-4-yl)pyrazolo[1,5-a]pyrazin-4-yl)oxy)bicyclo[2.1.1]hexan-1-yl)acrylamide], in test [1] (Homo sapiens, B-cell), the half-inhibitory concentration (IC50) was < 1000 nM.

Turning to `C=CC(=O)N(C)[C@]1(C)C[C@H](Oc2nc(-c3cnn(C)c3)cn3nccc23)C1` [Example 158, Cis N-methyl-N-(1-methyl-3-((6-(1-methyl-1H-pyrazol-4-yl)pyrazolo[1,5-a]pyrazin-4-yl)oxy)cyclobutyl)acrylamide], in test [1], the half-maximal inhibitory concentration (IC50) was < 1000 nM.

Take `C=CC(=O)N1CCC[C@@H](Oc2nc(-c3cnn(C)c3)cn3nccc23)C1` [Example 4, (R)-1-(3-((6-(1-methyl-1H-pyrazol-4-yl)pyrazolo[1,5-a]pyrazin-4-yl)oxy)piperidin-1-yl)prop-2-en-1-one]: the concentration for half-maximal inhibition (IC50) in test [1] (Homo sapiens, B-cell) was > 10000 nM.

On to `C=CC(=O)N1CC[C@@H](Oc2nc(-c3cnn(C)c3)cn3nccc23)C1` [Example 11, (R)-1-(3-((6-(1-methyl-1H-pyrazol-4-yl)pyrazolo[1,5-a]pyrazin-4-yl)oxy)pyrrolidin-1-yl)prop-2-en-1-one], for which the IC50 in test [1] (Homo sapiens, B-cell) is > 10000 nM.

`C=CC(=O)N1C[C@@H]2[C@H](COc3nc(-c4cnn(C)c4)cn4nccc34)[C@@H]2C1` [Example 221, 1-((1R,5S,6s)-6-(((6-(1-methyl-1H-pyrazol-4-yl)pyrazolo[1,5-a]pyrazin-4-yl)oxy)methyl)-3-azabicyclo[3.1.0]hexan-3-yl)prop-2-en-1-one]: the 50% inhibitory concentration (IC50) in test [1] (Homo sapiens, B-cell) was in the range of 1000 to 10000 nM.

On to `C=CC(=O)N(C)[C@@H]1CC[C@H](Oc2nc(-c3cnn(C)c3)cn3nccc23)C1` (relative stereo) [Example 143, N-methyl-N-((cis)-3-((6-(1-methyl-1H-pyrazol-4-yl)pyrazolo[1,5-a]pyrazin-4-yl)oxy)cyclopentyl)acrylamide], for which, in test [1] (Homo sapiens, B-cell), the IC50 was < 1000 nM.

For the compound `C=CC(=O)N1C[C@H](COc2cc(-c3cnn(C)c3)cn3nccc23)OC(C)(C)C1` [Example 83, (R)-1-(2,2-dimethyl-6-(((6-(1-methyl-1H-pyrazol-4-yl)pyrazolo[1,5-a]pyridin-4-yl)oxy)methyl)morpholino)prop-2-en-1-one], the concentration for half-maximal inhibition (IC50) on BTK was in the range of 1 to 10 nM.

As for `C=CC(=O)N1CCC[C@H](Oc2nc(-c3cnn(C)c3)cc3nccn23)CC1` (single isomer, unassigned) [Example 38, (R)- or (S)-1-(4-((7-(1-methyl-1H-pyrazol-4-yl)imidazo[1,2-c]pyrimidin-5-yl)oxy)azepan-1-yl)prop-2-en-1-one], the IC50 on BTK lay within 10 to 1000 nM.

For the compound `C=CC(=O)N1CCC[C@H](Nc2nc(-c3cnn(C)c3)cn3nccc23)CC1` (single isomer, unassigned) [Example 161], the half-maximal inhibitory concentration (IC50) on BTK fell in the range of 10 to 1000 nM.

On to `C=CC(=O)N1CCCC(Oc2nc(-c3cnn(C)c3)cn3ncc(Cl)c23)[C@H](F)C1` (mixture of isomers) [Example 203], for which the 50% inhibitory concentration (IC50) at BTK fell in the range of 10 to 1000 nM.

With `CN(C)C/C=C/C(=O)N(CC(F)F)[C@H]1CC[C@@H](Oc2nc(-c3cnn(C)c3)cn3nccc23)C1` [Example 147, (E)-N-(2,2-difluoroethyl)-4-(dimethylamino)-N-((1S,3R)-3-((6-(1-methyl-1H-pyrazol-4-yl)pyrazolo[1,5-a]pyrazin-4-yl)oxy)cyclopentyl)but-2-enamide], the concentration for half-maximal inhibition (IC50) at BTK was 1 to 10 nM.

`C=CC(=O)N1C[C@H]2C[C@@H](C1)[C@H]2COc1cc(-c2cnn(C)c2)cn2ncc(F)c12` (single isomer, unassigned) [Example 84, 1-((1R,5S,6s) or (1R,5S,6r)-6-(((3-fluoro-6-(1-methyl-1H-pyrazol-4-yl)pyrazolo[1,5-a]pyridin-4-yl)oxy)methyl)-3-azabicyclo[3.1.1]heptan-3-yl)prop-2-en-1-one]: at BTK, the half-inhibitory concentration (IC50) was < 1 nM.

Turning to `C=CC(=O)N1CCC[C@@H](Oc2nc(-c3cc(C)ns3)cn3nccc23)CC1` [Example 78, (R)-1-(4-((6-(3-methylisothiazol-5-yl)pyrazolo[1,5-a]pyrazin-4-yl)oxy)azepan-1-yl)prop-2-en-1-one], the IC50 on BTK was in the range of 1 to 10 nM.

Turning to `C=CC(=O)N1CCC[C@@H](Oc2nc(-c3csc(C)n3)cn3nccc23)CC1` [Example 76, (R)-1-(4-((6-(2-methylthiazol-4-yl)pyrazolo[1,5-a]pyrazin-4-yl)oxy)azepan-1-yl)prop-2-en-1-one], the concentration for half-maximal inhibition (IC50) on BTK was in the range of 1 to 10 nM.

On to `C=CS(=O)(=O)N1CCC[C@@H](Oc2nc(-c3cnn(C)c3)cc3nccn23)CC1` (single isomer, unassigned) [Example 36, (R)- or (S)-7-(1-methyl-1H-pyrazol-4-yl)-5-((1-(vinylsulfonyl)azepan-4-yl)oxy)imidazo[1,2-c]pyrimidine], for which the half-maximal inhibitory concentration (IC50) at BTK lay within 1 to 10 nM.

For `C/C=C/C(=O)Nc1cc(Oc2nc(-c3cnn(C)c3)cn3nccc23)ccc1C` [Example 131, (E)-N-(2-methyl-5-((6-(1-methyl-1H-pyrazol-4-yl)pyrazolo[1,5-a]pyrazin-4-yl)oxy)phenyl)but-2-enamide], the IC50 on BTK lay within 10 to 1000 nM.

As for `C=CC(=O)N(C)CC1(COc2nc(-c3cnn(C)c3)cn3nccc23)CC1` [Example 216, N-methyl-N-((1-(((6-(1-methyl-1H-pyrazol-4-yl)pyrazolo[1,5-a]pyrazin-4-yl)oxy)methyl)cyclopropyl)methyl)acrylamide], the IC50 at BTK lay in the range of 10 to 1000 nM.

As to `C=CC(=O)N1CCC[C@@H]2[C@H]1C[C@]2(C)Oc1nc(-c2cnn(C)c2)cn2nccc12` (single isomer, unassigned) [Example 112], at BTK, the half-maximal inhibitory concentration (IC50) was 10 to 1000 nM.

In the case of `C=CC(=O)N1CCC(COc2nc(-c3cnn(C)c3)cc3nccn23)C1` (centres unmarked) [Example 42], on BTK, the IC50 was in the range of 10 to 1000 nM.

Turning to `C=CC(=O)N1CC[C@]2(CC[C@H](Oc3nc(-c4cnn(C)c4)cn4nccc34)C2)C1` (single isomer, unassigned) [Example 204], the half-inhibitory concentration (IC50) at BTK is 10 to 1000 nM.

For the compound `C=CC(=O)NC(C)c1cccc(Oc2nc(-c3cnn(C)c3)cn3nccc23)c1C` (centres unmarked) [Example 137, N-(1-(2-methyl-3-((6-(1-methyl-1H-pyrazol-4-yl)pyrazolo[1,5-a]pyrazin-4-yl)oxy)phenyl)ethyl)acrylamide], at BTK, the IC50 is 10 to 1000 nM.

As for `C=CC(=O)N1CCCC(Oc2nc(-c3cn(C)nc3C)cn3nccc23)CC1` (single isomer, unassigned) [Example 69 E1, 1-[-4-[6-(1,3-dimethylpyrazol-4-yl)pyrazolo[1,5-a]pyrazin-4-yl]oxyazepan-1-yl]prop-2-en-1-one], on BTK, the 50% inhibitory concentration (IC50) was in the range of 1 to 10 nM.

As for `C=CC(=O)N1CC2CCC(N(C)c3cc(-c4cnn(C)c4)cn4nccc34)C2C1` (centres unmarked) [Example 154, 1-(4-(methyl(6-(1-methyl-1H-pyrazol-4-yl)pyrazolo[1,5-a]pyridin-4-yl)amino)hexahydrocyclopenta[c]pyrrol-2(1H)-yl)prop-2-en-1-one], on BTK, the IC50 was 10 to 1000 nM.

In the case of `C=CC(=O)N(C)[C@H]1C[C@@H](Oc2nc(-c3cnn([C@H]4CCOC4)c3)cn3nccc23)C1` [Example 156, N-methyl-N-((cis)-3-((6-(1-((S)-tetrahydrofuran-3-yl)-1H-pyrazol-4-yl)pyrazolo[1,5-a]pyrazin-4-yl)oxy)cyclobutyl)acrylamide], the IC50 at BTK is < 1 nM.

As for `C=CC(=O)N1CCC[C@@H](Oc2nc(-c3nc(C)co3)cn3nccc23)CC1` [Example 75, (R)-1-(4-((6-(4-methyloxazol-2-yl)pyrazolo[1,5-a]pyrazin-4-yl)oxy)azepan-1-yl)prop-2-en-1-one], the 50% inhibitory concentration (IC50) at BTK lay within 10 to 1000 nM.

For the compound `C=CC(=O)N(C)[C@H]1C[C@H](Oc2nc(-c3cnn(C)c3)cn3nccc23)C1(C)C` (racemic) [Example 218, rac-N-((trans)-2,2-dimethyl-3-((6-(1-methyl-1H-pyrazol-4-yl)pyrazolo[1,5-a]pyrazin-4-yl)oxy)cyclobutyl)-N-methylacrylamide], the IC50 at BTK is 1 to 10 nM.

Regarding `CC#CC(=O)N[C@@H]1CCC[C@H](Oc2nc(-c3cnn(C)c3)cn3nccc23)C1` [Example 180, N-((1R,3S)-3-((6-(1-methyl-1H-pyrazol-4-yl)pyrazolo[1,5-a]pyrazin-4-yl)oxy)cyclohexyl)but-2-ynamide], on BTK, the IC50 lay in the range of 10 to 1000 nM.

For the compound `C=CC(=O)N1CCC[C@@H](Oc2nc(-c3cc(OC)ncn3)cn3nccc23)CC1` [Example 74, (R)-1-(4-((6-(6-methoxypyrimidin-4-yl)pyrazolo[1,5-a]pyrazin-4-yl)oxy)azepan-1-yl)prop-2-en-1-one], the half-maximal inhibitory concentration (IC50) at BTK lay in the range of 10 to 1000 nM.

Turning to `C=CC(=O)N(C)[C@H]1C[C@@H](Oc2nc(-c3cnn(C)c3)cn3nc(N)cc23)C1` [Example 68, N-((cis)-3-((2-amino-6-(1-methyl-1H-pyrazol-4-yl)pyrazolo[1,5-a]pyrazin-4-yl)oxy)cyclobutyl)-N-methylacrylamide], the half-inhibitory concentration (IC50) on BTK was < 1 nM.

`C=CC(=O)N1CCC[C@H](Oc2nc(-c3cnn(C)c3)cn3ncc(Cl)c23)[C@H](F)C1` (racemic) [Example 202, rac-1-((3R,4S)-4-((3-chloro-6-(1-methyl-1H-pyrazol-4-yl)pyrazolo[1,5-a]pyrazin-4-yl)oxy)-3-fluoroazepan-1-yl)prop-2-en-1-one]: the IC50 on BTK was 10 to 1000 nM.

Turning to `C=CC(=O)N1CCC[C@H](COc2nc(-c3cnn(C)c3)cc3nccn23)C1` [Example 40], at BTK, the IC50 was in the range of 10 to 1000 nM.
